{"source": "patent US20240018145A1", "about": "“[…]-DEPENDENT EN[…] TREATING OR […]” (priority 2020, published 2024)", "data": [{"system": "FLU A (PR/8/34)", "experiment": "Flu A Neuraminidase Antiviral Assay", "assay_type": "cell-based", "details": "not given", "units": {"EC50": "nM"}, "values": [{"smiles": "O=C1c2c(O)c(=O)ccn2N2C(c3ccccc3)CCCC2N1CC1CC1", "note": "(single isomer, unassigned) [Compound 56C, 5-(cyclopropylmethyl)-7-hydroxy-1-phenyl-1,2,3,4,4a,5-hexahydrodipyrido[1,2-b:2′,1′-f][1,2,4]triazine-6,8-dione]", "EC50": "> 8100"}, {"smiles": "CN1C(=O)c2c(O)c(=O)ccn2N2C1CCCC2(C)c1ccc(F)cc1", "note": "(single isomer, unassigned) [Compound 26A, 1-(4-fluorophenyl)-7-hydroxy-1,5-dimethyl-1,2,3,4,4a,5-hexahydrodipyrido[1,2-b:2′,1′-f][1,2,4]triazine-6,8-dione]", "EC50": 8.4}, {"smiles": "C=CCC1CCC2N(C)C(=O)c3c(O)c(=O)ccn3N2C1c1ccccc1Cl", "note": "(stereo not drawn) [Compound 64D, 2-allyl-1-(2-chlorophenyl)-7-hydroxy-5-methyl-1,2,3,4,4a,5-hexahydrodipyrido[1,2-b:2′,1′-f][1,2,4]triazine-6,8-dione]", "EC50": 4.6}, {"smiles": "Cc1ccccc1C1C(CC(F)(F)F)CCC2(C)N(C)C(=O)c3c(O)c(=O)ccn3N12", "note": "(single isomer, unassigned) [Compound 87A, 7-hydroxy-4a,5-dimethyl-1-(o-tolyl)-2-(2,2,2-trifluoroethyl)-1,2,3,4,4a,5-hexahydrodipyrido[1,2-b:2′,1′-f][1,2,4]triazine-6,8-dione]", "EC50": "> 810"}, {"smiles": "CC1(c2ccccc2)CCCC2N(CC(F)(F)F)C(=O)c3c(O)c(=O)ccn3N21", "note": "(single isomer, unassigned) [Compound 34A, 7-hydroxy-1-methyl-1-phenyl-5-(2,2,2-trifluoroethyl)-1,2,3,4,4a,5-hexahydrodipyrido[1,2-b:2′,1′-f][1,2,4]triazine-6,8-dione]", "EC50": 3090}, {"smiles": "CC1(c2ccccc2)CCCC2N(CC3COC3)C(=O)c3c(O)c(=O)ccn3N21", "note": "(single isomer, unassigned) [Compound 40A, 7-hydroxy-1-methyl-5-(oxetan-3-ylmethyl)-1-phenyl-1,2,3,4,4a,5-hexahydrodipyrido[1,2-b:2′,1′-f][1,2,4]triazine-6,8-dione]", "EC50": 14.4}, {"smiles": "CN1C(=O)c2c(O)c(=O)ccn2N2C(c3ccccc3)CCCCC12", "note": "(single isomer, unassigned) [Compound 57A, 4-hydroxy-6-methyl-11-phenyl-6a,7,8,9,10,11-hexahydro-3H-pyrido[1′,2′:1,6][1,2,4]triazino[2,3-a]azepine-3,5(6H)-dione]", "EC50": 95.5}, {"smiles": "CCN1C(=O)c2c(O)c(=O)ccn2N2C1CCCC2(C)c1cccc(C2CC2)n1", "note": "(single isomer, unassigned) [Compound 55A, 1-(6-cyclopropylpyridin-2-yl)-5-ethyl-7-hydroxy-1-methyl-1,2,3,4,4a,5-hexahydrodipyrido[1,2-b:2′,1′-f][1,2,4]triazine-6,8-dione]", "EC50": "> 810"}, {"smiles": "CN1C(=O)c2c(O)c(=O)ccn2N2C(c3ccccc3F)C(CC(F)F)CCC12", "note": "(single isomer, unassigned) [Compound 113B, 2-(2,2-difluoroethyl)-1-(2-fluorophenyl)-7-hydroxy-5-methyl-1,2,3,4,4a,5-hexahydrodipyrido[1,2-b:2′,1′-f][1,2,4]triazine-6,8-dione]", "EC50": 7.3}, {"smiles": "CC1(c2ccccc2)CCCC2N(CC(F)(F)F)C(=O)c3c(O)c(=O)ccn3N21", "note": "(single isomer, unassigned) [Compound 34B, 7-hydroxy-1-methyl-1-phenyl-5-(2,2,2-trifluoroethyl)-1,2,3,4,4a,5-hexahydrodipyrido[1,2-b:2′,1′-f][1,2,4]triazine-6,8-dione]", "EC50": 4.9}, {"smiles": "Cc1c(F)cccc1C1C(CC(F)(F)F)CCC2N(C)C(=O)c3c(O)c(=O)ccn3N12", "note": "(single isomer, unassigned) [Compound 80A, 1-(3-fluoro-2-methylphenyl)-7-hydroxy-5-methyl-2-(2,2,2-trifluoroethyl)-1,2,3,4,4a,5-hexahydrodipyrido[1,2-b:2′,1′-f][1,2,4]triazine-6,8-dione]", "EC50": 59.6}, {"smiles": "CN1C(=O)c2c(O)c(=O)ccn2N2C1CCCC2(C)c1ccccc1", "note": "(single isomer, unassigned) [Compound 18A, 7-hydroxy-1,5-dimethyl-1-phenyl-1,2,3,4,4a,5-hexahydrodipyrido[1,2-b:2′,1′-f][1,2,4]triazine-6,8-dione]", "EC50": 7.1}, {"smiles": "CCN1C(=O)c2c(O)c(=O)ccn2N2C(c3ccccc3)C(CC(F)(F)F)CCC12C", "note": "(single isomer, unassigned) [Compound 82B, 5-ethyl-7-hydroxy-4a-methyl-1-phenyl-2-(2,2,2-trifluoroethyl)-1,2,3,4,4a,5-hexahydrodipyrido[1,2-b:2′,1′-f][1,2,4]triazine-6,8-dione]", "EC50": 2.3}, {"smiles": "O=C1c2c(O)c(=O)ccn2N2C(c3ccccc3)CCCC2N1CC1CC1", "note": "(single isomer, unassigned) [Compound 56B, 5-(cyclopropylmethyl)-7-hydroxy-1-phenyl-1,2,3,4,4a,5-hexahydrodipyrido[1,2-b:2′,1′-f][1,2,4]triazine-6,8-dione]", "EC50": 6850}, {"smiles": "CN1C(=O)c2c(O)c(=O)ccn2N2C(c3ccccc3)C(CCC3CC3)CCC12", "note": "(single isomer, unassigned) [Compound 115C, 2-(2-cyclopropylethyl)-7-hydroxy-5-methyl-1-phenyl-1,2,3,4,4a,5-hexahydrodipyrido[1,2-b:2′,1′-f][1,2,4]triazine-6,8-dione]", "EC50": 2.7}, {"smiles": "CN1C(=O)c2c(O)c(=O)ccn2N2C(c3ccccc3F)CCCC12", "note": "(single isomer, unassigned) [Compound 8A, 1-(2-fluorophenyl)-7-hydroxy-5-methyl-1,2,3,4,4a,5-hexahydrodipyrido[1,2-b:2′,1′-f][1,2,4]triazine-6,8-dione]", "EC50": "> 8100"}, {"smiles": "CN1C(=O)c2c(O)c(=O)ccn2N2C(c3ccccc3)C(CC(C)(F)F)CCC12", "note": "(single isomer, unassigned) [Compound 126A, 2-(2,2-difluoropropyl)-7-hydroxy-5-methyl-1-phenyl-1,2,3,4,4a,5-hexahydrodipyrido[1,2-b:2′,1′-f][1,2,4]triazine-6,8-dione]", "EC50": "> 8100"}, {"smiles": "COc1c2n(ccc1=O)N1C(c3ccccc3)C(SC(C)C)CCC1N(C)C2=O", "note": "(stereo not drawn) [Compound 146B, 2-(isopropylthio)-7-methoxy-5-methyl-1-phenyl-1,2,3,4,4a,5-hexahydrodipyrido[1,2-b:2′,1′-f][1,2,4]triazine-6,8-dione]", "EC50": 237}, {"smiles": "CN1C(=O)c2c(O)c(=O)ccn2N2C(c3ccccc3)C(CC(F)F)CCC12", "note": "(single isomer, unassigned) [Compound 129D, 2-(2,2-difluoroethyl)-7-hydroxy-5-methyl-1-phenyl-1,2,3,4,4a,5-hexahydrodipyrido[1,2-b:2′,1′-f][1,2,4]triazine-6,8-dione]", "EC50": 92}, {"smiles": "CN1C(=O)c2c(O)c(=O)ccn2N2C1CCCC2(C)c1ccccc1F", "note": "(single isomer, unassigned) [Compound 24A, 1-(2-fluorophenyl)-7-hydroxy-1,5-dimethyl-1,2,3,4,4a,5-hexahydrodipyrido[1,2-b:2′,1′-f][1,2,4]triazine-6,8-dione]", "EC50": 2.1}, {"smiles": "CN1C(=O)c2c(O)c(=O)ccn2N2C(c3ccccc3)C(CC(F)F)CCC12", "note": "(single isomer, unassigned) [Compound 129B, 2-(2,2-difluoroethyl)-7-hydroxy-5-methyl-1-phenyl-1,2,3,4,4a,5-hexahydrodipyrido[1,2-b:2′,1′-f][1,2,4]triazine-6,8-dione]", "EC50": 196}, {"smiles": "Cc1cccnc1C1(C)CCCC2N(CC(F)(F)F)C(=O)c3c(O)c(=O)ccn3N21", "note": "(single isomer, unassigned) [Compound 44B, 7-hydroxy-1-methyl-1-(3-methylpyridin-2-yl)-5-(2,2,2-trifluoroethyl)-1,2,3,4,4a,5-hexahydrodipyrido[1,2-b:2′,1′-f][1,2,4]triazine-6,8-dione]", "EC50": 15.2}, {"smiles": "CN1C(=O)c2c(O)c(=O)ccn2N2C(c3ccccc3)C(CC(C)(F)F)CCC12", "note": "(single isomer, unassigned) [Compound 126B, 2-(2,2-difluoropropyl)-7-hydroxy-5-methyl-1-phenyl-1,2,3,4,4a,5-hexahydrodipyrido[1,2-b:2′,1′-f][1,2,4]triazine-6,8-dione]", "EC50": 16.1}, {"smiles": "CN1C(=O)c2c(O)c(=O)ccn2N2C(c3ccccc3)C(C3(C(F)(F)F)CC3)CCC12", "note": "(single isomer, unassigned) [Compound 108A, 7-hydroxy-5-methyl-1-phenyl-2-(1-(trifluoromethyl)cyclopropyl)-1,2,3,4,4a,5-hexahydrodipyrido[1,2-b:2′,1′-f][1,2,4]triazine-6,8-dione]", "EC50": 5420}, {"smiles": "CN1C(=O)c2c(O)c(=O)ccn2N2C(c3ccccc3)C(CC(F)(F)F)CCC12C", "note": "(single isomer, unassigned) [Compound 111B, 7-hydroxy-4a,5-dimethyl-1-phenyl-2-(2,2,2-trifluoroethyl)-1,2,3,4,4a,5-hexahydrodipyrido[1,2-b:2′,1′-f][1,2,4]triazine-6,8-dione]", "EC50": 3.3}, {"smiles": "CN1C(=O)c2c(O)c(=O)ccn2N2C(c3cccc(F)c3)CCCC12", "note": "(single isomer, unassigned) [Compound 10B, 1-(3-fluorophenyl)-7-hydroxy-5-methyl-1,2,3,4,4a,5-hexahydrodipyrido[1,2-b:2′,1′-f][1,2,4]triazine-6,8-dione]", "EC50": 86.5}, {"smiles": "CN1C(=O)c2c(O)c(=O)ccn2N2C1CCC(C)(CC(F)(F)F)C2c1ccccc1", "note": "(single isomer, unassigned) [Compound 71B, 7-hydroxy-2,5-dimethyl-1-phenyl-2-(2,2,2-trifluoroethyl)-1,2,3,4,4a,5-hexahydrodipyrido[1,2-b:2′,1′-f][1,2,4]triazine-6,8-dione]", "EC50": 18.5}]}, {"system": "FLU A (PR/8/34)", "experiment": "Flu A Neuraminidase Antiviral Assay", "assay_type": "cell-based", "details": "MDCK, 48 h", "units": {"EC50": "nM"}, "values": [{"smiles": "CN1C(=O)c2c(O)c(=O)ccn2N2[C@H](c3ccccc3)[C@@H](NC(=O)C(F)(F)F)CC[C@@H]12", "note": "[Compound 140]", "EC50": 2400}, {"smiles": "CCN1C(=O)c2c(O)c(=O)cc(COC)n2N2C(c3ccccc3)C(CC(F)(F)F)CCC12", "note": "(single isomer, unassigned) [Compound 131A, 5-ethyl-7-hydroxy-10-(methoxymethyl)-1-phenyl-2-(2,2,2-trifluoroethyl)-1,2,3,4,4a,5-hexahydrodipyrido[1,2-b:2′,1′-f][1,2,4]triazine-6,8-dione]", "EC50": "> 810"}, {"smiles": "CN1C(=O)c2c(O)c(=O)ccn2N2C1CCC1OCc3ccccc3C12C", "note": "(stereo not drawn) [Compound 148, 7-hydroxy-5,12a-dimethyl-2a,3,4,4a,5,12a-hexahydro-1H-isochromeno[3′,4′:5,6]pyrido[1,2-b]pyrido[2,1-f][1,2,4]triazine-6,8-dione]", "EC50": 38}]}]}
